Data: patent publication US5656637A, “Thiazole derivatives” (Yamanouchi Pharmaceutical Co., Ltd., priority 1990, dated 1997)
Like-named read-outs stand apart in the source and are kept apart here.

Assays:
5-HT3 receptor [1] = target: T1, 5-HT3 receptor (Rattus norvegicus, UniProt P35563); test: Effects of 5-HT3 receptor antagonists on the action of the compound of the present invention (decreases in heart rate and blood pressure); type: in vivo, rat (male Wistar); conditions: GR38032F 30 μg/kg i.v. or ICS 205-930 0.1-1 μg/kg i.v., 10 minutes before the compound of the present invention
T1 construct: Male Wistar rats, 9 weeks old, were anesthetized with urethane; from tissue; host or cells: whole animal in vivo: anesthetized male Wistar rat (endogenous receptor; tissue not given)
T1 sequence (P35563 24-483): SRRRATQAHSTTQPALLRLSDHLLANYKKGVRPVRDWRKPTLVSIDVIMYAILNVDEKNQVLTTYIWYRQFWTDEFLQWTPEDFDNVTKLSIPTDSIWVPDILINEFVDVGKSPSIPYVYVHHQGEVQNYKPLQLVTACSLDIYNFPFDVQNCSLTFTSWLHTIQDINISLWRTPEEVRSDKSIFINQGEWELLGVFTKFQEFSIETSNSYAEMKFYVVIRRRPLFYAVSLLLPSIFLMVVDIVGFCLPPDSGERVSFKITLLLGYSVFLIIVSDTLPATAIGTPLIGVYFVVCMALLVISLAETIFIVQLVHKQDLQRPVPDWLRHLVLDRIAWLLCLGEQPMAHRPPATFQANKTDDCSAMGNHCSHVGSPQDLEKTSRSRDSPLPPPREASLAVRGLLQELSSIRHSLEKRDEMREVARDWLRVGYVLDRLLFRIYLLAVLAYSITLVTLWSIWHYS
Protocol: Male Wistar rats, 9 weeks old, were anesthetized with urethane 1 g/kg i.p. and the blood pressure and the heart rate were determined under artificial ventilation. […] In addition, it was confirmed by using 5-HT3 receptor antagonists that the changes caused by administration of the compound of the present invention were 5-HT3 receptor-mediated responses.
2) Effects of 5-HT3 receptor antagonists on the action of the compound of the present invention
GR38032F (30 μg/kg i.v.) or ICS 205-930 (0.1-1 μg/kg i.v.), 10 minutes before administration of the compound of the present invention.

5-HT3 receptor [2] = target: T1, 5-HT3 receptor; test: 5-HT3 receptor stimulating action (Bezold-Jarisch reflex evoking action) in anesthetized rat, i.v.; type: in vivo, rat (male Wistar); conditions: for ED50: iv, read-out: BJ reflex evoking activity ED50
Protocol: Male Wistar rats, 9 weeks old, were anesthetized with urethane 1 g/kg i.p. and the blood pressure and the heart rate were determined under artificial ventilation.
1) 5-HT3 receptor stimulating action (Bezold-Jarisch reflex evoking action)

Structure (SMILES)	inhibition by 5-HT3 receptor antagonist of the decreases in heart rate and blood pressure induced by the compound of the present invention (5-HT3 receptor [1])	BJ reflex evoking activity Emax (maximal bradycardiac response) (5-HT3 receptor [2]; i.v., anesthetized rat) [beats/min]	ED50 (5-HT3 receptor [2]; rat) [mg/kg]	Bezold-Jarisch reflex evoking activity, potency relative to serotonin (5-HT3 receptor [2]; i.v., rat, versus serotonin)	ED50 (5-HT3 receptor [2]; anesthetized rat) [mg/kg]
Cc1nccn1CC1CCc2c(c3ccccc3n2C)C1=O (racemic) [GR38032F]	competitively inhibited				
Cc1[nH]c2ccc(O)cc2c1CCN [2-Methylserotonin, 2-methylserotonin]		259.0	0.0374		
COc1ccccc1Nc1nc2c(s1)CN(C)CC2.O=C(O)/C=C/C(=O)O [Example 1, 2-(o-methoxyanilino)-5-methyl-4,5,6,7-tetrahydrothiazolo[5,4-c]pyridine fumarate]		205.8		about 5 fold	0.00301
CN1C2CCC1CC(OC(=O)c1c[nH]c3ccccc13)C2 (stereo not shown) [ICS 205-930]	competitively inhibited				
